According to patent US9657071B2, “IgE peptide vaccine” (NIPPON ZENYAKU KOGYO CO., LTD., priority 2012, dated 2017):

How the values were obtained:
Type in all cases: in vivo
[1] = tested on: Der f 2-specific IgE; test: Der f 2-specific IgE in serum of vaccinated, Der f 2-sensitized dogs; conditions: dog
Protocol: The peptide used was MOUSE CH3-4-17-11 (mouse CH3 region amino acid sequence) (SEQ ID NO: 27). 2 mL (500 μg) of a solution of the peptide (concentration: 250 μg/mL) and 2 mL of a complete adjuvant (DIFCO ADJUVANT COMPLETE FREUND, Becton, Dickinson and Company Japan) were dispensed to microtubes. Liquids (4 mL per animal) emulsified by shaking for 15 minutes in a high-speed shaker were used as IgE peptide vaccines.
The animals used were 1 male and 7 females of 5- to 7-month-old beagles and were divided into an administration group (n=4; 08-33, 08-42, 08-43, and 08-44) and a non-administration group (n=4; 08-45, 08-46, 08-47, and 08-48).
The peptide was administered at days 0 (test start date), 14, and 28 in the first course and further at days 106 and 117 in the second course. The test substance was subcutaneously administered to the necks of the 4 animals in the administration group. The non-administration group was untreated.
Four weeks after the completion of the peptide administration of the first course (days 56 and 70 into the test), all of the animals were artificially sensitized. A mixed liquid (4.0 mL per animal) of 300 μg of Der f 2 (Lot No. 3, 1465 μg/mL, prepared by a drug research team) and 50 mg of an alum adjuvant (SIGMA® Aluminium hydrate IgE1, 13 mg/mL) was used as a sensitizing solution and administered intraperitoneally for the first shot and subcutaneously to the necks for the second shot.
Four weeks after the completion of the peptide administration of the second course (day 145 into the test), the artificial sensitization was boosted. A 1-mL solution prepared from Der f 2 (Lot No. 3: 0.205 mL of 1465 μg/mL: 300 μg) with saline was subcutaneously administered to the necks of all of the animals.
At days 0, 14, 28, 42, 56, 70, 77, 84, 98, 106, 117, 131, 145, and 152 (4 time points (0, 14, 28, and 42) were excluded for the non-administration group), blood was collected from the jugular vein of each individual using a syringe. After separation of serum, the serum was used to measure peptide-specific IgG concentrations and IgE-specific IgG concentrations in the serum.
Serum obtained at days 70, 77, 106, 117, 131, 145, and 152 were used in the measurement of Der f 2-specific IgE concentrations in the serum, which was consigned to AAC Laboratories Inc.

[2] = tested on: dog IgE; test: Reactivity of serum of peptide-immunized rabbit with dog IgE (ELISA); conditions: 500 μg peptide + complete adjuvant s.c.
Protocol: (§1) 2 mL of the 250 μg/mL peptide (a total of 500 μg) used in Example 2 was mixed with an equal amount of a complete adjuvant (a total of 4 mL). Each rabbit was immunized with this mixture by the subcutaneous administration (amount of the peptide: 500 μg) at day 0 and weeks 2, 4, 6, and 8. Blood was collected 5 weeks after the week-8 administration (week 13 counted from day 0). Booster immunization was performed at week 14 counted from day 0, and blood was further collected 2 weeks thereafter (week 16 counted from day 0). Antibody titers in the collected blood were measured by ELISA. The serum of a rabbit that received no peptide was used as a control.
(§2) ELISA was performed by the following method: each […] recombinant CH3 solution of dog IgE, human IgE, mouse IgE, dog IgG, and cat IgE was immobilized at a concentration of 100 μL/well (100 ng/well) to a plate. The serum collected from the immunized rabbit was used (×200 to ×102400) as a primary antibody. An enzyme-labeled anti-rabbit IgG antibody (Zymed Laboratories Inc.) was used as a secondary antibody.

[3] = tested on: human IgE; test: Reactivity of serum of peptide-immunized rabbit with human IgE (ELISA); conditions: 500 μg peptide + complete adjuvant s.c.
Protocol: as §1, §2

[4] = tested on: cat IgE; test: Reactivity of serum of peptide-immunized rabbit with cat IgE recombinant CH3 (ELISA); conditions: 500 μg peptide + complete adjuvant s.c.
Protocol: as §1, §2

[5] = tested on: dog IgG; test: Reactivity of serum of peptide-immunized rabbit with dog IgG (ELISA); conditions: 500 μg peptide + complete adjuvant s.c.
Protocol: as §1, §2

Chain of dog IgE (as listed by the source): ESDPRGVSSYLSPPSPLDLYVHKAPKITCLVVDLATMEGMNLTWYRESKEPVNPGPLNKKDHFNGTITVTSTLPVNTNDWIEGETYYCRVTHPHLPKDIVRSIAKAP

QEKKTSVSASQWYTKHHNNATTSIT (listed as Mus musculus) [MOUSE CH3-4-17-11]
Der f 2-specific IgE in serum, administration group versus non-administration group ([1]; all of the time points): no significant difference | Der f 2-specific IgE concentrations in serum, administration group ([1]; day 70 (2 weeks after the first sensitization)): 1528.8 ± 1823.6 ng/mL | average of Der f 2-specific IgE concentrations in the serum of the administration group ([1]; day 77, 3 animals, excluding 08-43): 1352.3 ng/mL | Der f 2-specific IgE concentrations in serum, administration group ([1]; day 106 (peak)): 3091.8 ± 1542.6 ng/mL | Der f 2-specific IgE concentrations in serum, administration group ([1]; day 152 (7 days after the boosting)): 3972.5 ± 1216.5 ng/mL | production of IgE after subsequent sensitization ([1]; summary of FIG. 6): inhibited the production of IgE | response of immobilized dog IgE to peptide-administered rabbit serum [2]: responded | response of immobilized human IgE to peptide-administered rabbit serum [3]: responded | response of immobilized cat IgE to peptide-administered rabbit serum [4]: responded | response of immobilized dog IgG to peptide-administered rabbit serum [5]: responded to neither
